Test results as given in US8673917B2, “2-heteroaryl-pyrrolo [3,4-C]pyrrole derivatives, and use thereof as SCD inhibitors” (Sanofi, priority 2008, dated 2014).
Where a name gives a salt, the structure may show the parent alone.

Molecular target: T1, SCD1 (Rattus norvegicus, UniProt P07308)
T1 construct: from tissue; host or cells: liver microsomes of male Wistar rats fed a carbohydrate-rich, low-fat diet
T1 sequence (P07308 1-358): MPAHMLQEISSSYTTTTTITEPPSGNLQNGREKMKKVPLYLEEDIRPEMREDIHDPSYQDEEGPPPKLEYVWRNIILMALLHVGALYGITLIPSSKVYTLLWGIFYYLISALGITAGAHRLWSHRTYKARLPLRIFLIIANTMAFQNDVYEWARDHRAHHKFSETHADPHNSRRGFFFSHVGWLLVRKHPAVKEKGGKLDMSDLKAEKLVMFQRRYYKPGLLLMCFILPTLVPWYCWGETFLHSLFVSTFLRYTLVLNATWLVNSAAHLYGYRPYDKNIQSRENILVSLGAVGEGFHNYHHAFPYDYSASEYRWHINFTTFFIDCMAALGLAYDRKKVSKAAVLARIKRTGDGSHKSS
Experiment: Stearoyl-CoA desaturase (SCD1) activity assay with rat liver microsomes, TLC with 1-14C-labeled stearic acid
Assay type: biochemical
Details: for IC50: SCD1 activity; for inhibition at 10 µM: inhibition of SCD1 activity at 10 μM/l
Method: The efficacy of the inventive compounds of the formula I was tested with microsomal enzymes in the following assay system:
The livers of male Wistar rats which (to induce the expression of SCD1) had been fed with a carbohydrate-rich, low-fat diet were homogenized with a Potter tissue homogenizer and differential centrifugation in a buffer which contained 250 mM/l of sucrose and 5 mM/l of HEPES (pH 7.0). The resuspended microsome fraction was stored at −80° C. The stearoyl-CoA desaturase activity was determined in a thin-film chromatography assay with 1-^14C-labeled stearic acid. In short, the particular inventive compounds (in DMSO in a final concentration of 1% [v/v]) were incubated with 15 μg of the rat liver microsomes in 200 μl of assay buffer (6 mM/l of MgCl2, 250 mM/l of sucrose, 150 mM/l of KCl, 40 mM/l of NaF, 100 mM/l of Na2HPO4 (pH7.4), 1.3 mM/l of ATP, 1.5 mM/l of reduced glutathione, 60 uM/l of CoA, 0.33 mM/l of nicotinamide and 0.94 mM/l of NADH) at room temperature for 10 min. 0.5 μCi [1-^14C]-stearic acid (55 mCi/mmol) was added, and the mixture was incubated at 37° C. for 1 h. The radioactively labeled fatty acids were subsequently hydrolyzed at 65° C. with 2.5 M KOH/MeOH:H2O (4:1) for 4 h, protonated with 280 μl of formic acid and extracted with 500 μl of hexane. The TLC plates were immersed into 10% AgNO3 and heat-activated before use. 150 μl of the hexane phase were applied to the plates, and the TLC plates were developed in buffer (chloroform:methanol:acetic acid:water [90:8:1:0.8]) and dried. The plates were read off in a phosphoimager to quantify the SCD1 activity.
The person skilled in the art can modify this assay in various aspects to determine the inhibition of the stearoyl-CoA desaturase activity.

Row | SMILES | IC50 | inhibition at 10 µM
1 | O=C(c1ccccc1C(F)(F)F)N1CC2=C(C1)CN(c1ccc(OCc3ccccc3)cn1)C2 [Example 1, [5-(5-Benzyloxypyridin-2-yl)-3,4,5,6-tetrahydro-1H-pyrrolo[3,4-c]pyrrol-2-yl](2-trifluoromethylphenyl)methanone] | 133 nM | 80%
2 | O=C(c1ccccc1C(F)(F)F)N1CC2=C(C1)CN(c1ccc(OCc3ccccc3)nn1)C2 [Example 3, [5-(6-Benzyloxpyridazin-3-yl)-3,4,5,6-tetrahydro-1H-pyrrolo[3,4-c]pyrrol-2-yl](2-trifluoromethylphenyl)methanone] | 7.18 nM | 100%
3 | O=C(c1ccccc1C(F)(F)F)N1CC2=C(C1)CN(c1ccc(OCCc3ccccc3)nn1)C2 [Example 4, [5-(6-Phenethyloxypyridazin-3-yl)-3,4,5,6-tetrahydro-1H-pyrrolo[3,4-c]pyrrol-2-yl](2-trifluoromethylphenyl)methanone trifluoroacetate] | 43.4 nM | 
4 | O=C(c1ccccc1C(F)(F)F)N1CC2=C(C1)CN(c1ccc(OCc3ccccc3)nn1)C2 [Example 8, 5-(6-Benzyloxypyridazin-3-yl)-3,4,5,6-tetrahydro-1H-pyrrolo[3,4-c]pyrrol-2-yl](2-trifluoromethylphenyl)methanone hydrochloride] | 8.48 nM | 

Other lines, results leading:

Row | IC50 | inhibition at 10 µM | SMILES
5 | 795 nM | 86% | O=C(c1ccccc1C(F)(F)F)N1CC2=C(C1)CN(c1ccc(OCc3nccs3)nn1)C2 [Example 2, {5-[6-(Thiazol-2-ylmethoxy)pyridazin-3-yl]-3,4,5,6-tetrahydro-1H-pyrrolo[3,4-c]pyrrol-2-yl}-(2-trifluoromethylphenyl)methanone]
6 | 213 nM |  | O=C(c1ccccc1C(F)(F)F)N1CC2=C(C1)CN(c1ccc(OCCC3CC3)nn1)C2 [Example 5, {5-[6-(2-Cyclopropylethoxy)pyridazin-3-yl]-3,4,5,6-tetrahydro-1H-pyrrolo[3,4-c]pyrrol-2-yl}-(2-trifluoromethylphenyl)methanone trifluoroacetate]
7 | 483 nM |  | O=C(c1ccccc1C(F)(F)F)N1CC2=C(C1)CN(c1ccc(OCc3cscn3)nn1)C2 [Example 6, {5-[6-(Thiazol-4-ylmethoxy)pyridazin-3-yl]-3,4,5,6-tetrahydro-1H-pyrrolo[3,4-c]pyrrol-2-yl}-(2-trifluoromethylphenyl)methanone trifluoroacetate]
8 | 7120 nM |  | O=C(c1ccccc1C(F)(F)F)N1CC2=C(C1)CN(c1ccc(OCC3CCOCC3)nn1)C2 [Example 7, {5-[6-(Tetrahydropyran-4-ylmethoxy)pyridazin-3-yl]-3,4,5,6-tetrahydro-1H-pyrrolo[3,4-c]pyrrol-2-yl}-(2-trifluoromethylphenyl)methanone trifluoroacetate]
9 | 1340 nM |  | O=C(c1ccccc1C(F)(F)F)N1CC2=C(C1)CN(c1ccc(OCc3ccccn3)nn1)C2 [Example 9, 5-[6-(Pyridin-2-ylmethoxy)pyridazin-3-yl]-3,4,5,6-tetrahydro-1H-pyrrolo[3,4-c]pyrrol-2-yl}-(2-trifluoromethylphenyl)methanone hydrochloride]
